{"source": "paper PMC10747602", "about": "“Dose Response, Dosimetric, and Metabolic Evaluations of Replacement PFAS Perfluoro-(2,5,8-trimethyl-3,6,9-trioxadodecanoic) Acid (HFPO-TeA)” (Toxics, 2023)", "key": {"[1]": {"assay": "Hepatocyte metabolic stability (clearance) assay, human hepatocytes", "details": "human, hepatocytes, 1000 nM", "method": "(§1) Information on the chemicals and materials used in the hepatocyte metabolic work can be found in Supplementary Text S9 and Table S3. In vitro evaluations of hepatocyte metabolic stability were performed in human and rat hepatocytes, as previously described. Briefly, pooled, cryopreserved hepatocyte suspensions were thawed, assessed for viability, and then diluted in William’s medium E containing dexamethasone and cell maintenance cocktail B to achieve a cell density of 50,000 cells/100 µL. The assay was started by adding hepatocyte suspensions to wells of 96-well polypropylene plates containing an equal volume of media with 2 µM of analyte (final assay concentration: 1 µM). Plates were placed in a 37 °C cell culture incubator (5% CO2) on a shaker set to 200 rpm. Time points assessed were T0, T15, T30, T60, T120, and T240 min. At each time point, the plates were removed from the shaker and the incubates were crashed with an equal volume of ice-cold ACN containing 1.2% FA and 16 ng/mL of ^13C3 -HFPO-DA. After chilling and centrifugation at 4122× g, the supernatants were transferred to new collection plates and stored at −70 °C until analysis for the parent compound on the Waters instrumentation described below. Immediately prior to analysis, samples were thawed, vortexed, and centrifuged at 4200× g, and then diluted 1:4 in 95:5 H2O/ACN with 2.5 mM of ammonium acetate. Negative controls, including no cell controls and metabolically inactivated hepatocytes, were run concurrently to assess the chemical stability over the time course.\n(§2) Intrinsic clearance (Clint; hepatic clearance) calculations are detailed in Supplementary Text S9 [57].\n(§3) Targeted, quantitative analysis of in vitro hepatocyte metabolic stability and plasma protein binding assay samples was conducted on a Waters Xevo-TQS micro mass spectrometer (Waters, Milford, MA, USA) ultra-high-performance liquid chromatography tandem mass spectrometry system (UPLC-MS/MS), modified with a PFAS analysis kit. Samples were analyzed in negative ion mode with UniSpray ionization. A CORTECS T3 column (Waters CORTECS, 3 × 100 mm, particle size 2.7 µm) was used for chromatographic separation with a flow rate of 0.6 mL/min and a temperature of 55 °C. Gradient elution was used with eluent A (95:5 H2O/ACN) and eluent B (95:5 ACN/H2O) with 2.5 mM of ammonium acetate. The gradient is available in Table S11. Additional details for MS parameters are found in Table S12 and monitored transitions are found in Table S13.\n(§4) Table S2: Data processing parameters used with Sciex MarkerView 1.3.1.\n(§5) Support ing Text S9: Hepatocyte Metabolic Stability Assay Materials, Chemicals, and Calculations\n(§6) Pooled human and rat cryopreserved primary hepatocyte suspensions were both obtained from\n(§7) BioIVT, a US Food and Drug Administration-licensed and inspected donor center, and produced using\n(§8) non-transplantable tissue.\n(§9) William’s E media, dexamet hasone (98% pure), and cell maintenance cocktail B were obtained from\n(§10) Thermo Fisher Scientific (Waltham, MA, USA), the OptiThaw hepatocyte kit from Sekisui/Xenotech\n(§11) (Tokyo, Japan), and the trypan blue s (Sekisui/ Xenotech, Tokyo, Japan) and the trypan blue solution from […]"}, "[2]": {"system": "human hepatocytes", "assay": "Hepatocyte metabolic stability (clearance) assay, human hepatocytes", "details": "1000 nM; for Negative Control Data, No cells (NC), Ln Concentration / Negative Control Data, Heat Treated (HT), Ln Concentration / Ln Concentration: Rep 1-3", "method": "as §1, §2, §3, §4, §5, §6, §7, §8, §9, §10, §11"}, "[3]": {"assay": "Hepatocyte metabolic stability (clearance) assay, rat hepatocytes", "details": "both, Sprague Dawley, rat, hepatocytes", "method": "as §1, §2, §3, §4, §5, §6, §7, §8, §9, §10, §11"}, "[4]": {"system": "rat hepatocytes", "assay": "Hepatocyte metabolic stability (clearance) assay, rat hepatocytes", "details": "1000 nM", "method": "as §1, §2, §3, §4, §5, §6, §7, §8, §9, §10, §11"}}, "note": "“And” between values parts separate entries of the source, which are not always exact repeats. Equal values may be shown once."}
{"smiles": "CCOc1ccc(NC(C)=O)cc1", "note": "[Phenactin, phenacetin, reference compound]", "values": [{"measurement": "hepatocyte CLint at 1 µM", "setting": "[1]; Background-Subtracted Clint, human hepatocytes", "result": 8.8, "unit": "µL/min/1e6 cells"}, {"measurement": "hepatocyte CLint at 1 µM", "setting": "[1]; Clint, human hepatocytes, not background-subtracted", "result": 12.1, "unit": "µL/min/1e6 cells"}, {"measurement": "half-life at 1 µM", "setting": "[1]; HT-Background Half Life, heat treated human hepatocytes", "result": 7.1, "unit": "h"}, {"measurement": "half-life at 1 µM", "setting": "[1]; Half Life, human hepatocytes, time in min", "result": 1.92, "unit": "h"}, {"measurement": "Negative Control Data, No cells (NC), Ln Concentration", "setting": "[2]; 15 min", "result": "3.8649 and 3.8943 and 3.8643"}, {"measurement": "Negative Control Data, No cells (NC), Ln Concentration", "setting": "[2]; 240 min", "result": "3.9162 and 4.0144 and 3.9729"}, {"measurement": "HT Background k", "setting": "[2]; heat treated human hepatocytes", "result": -0.0016}, {"measurement": "Negative Control Data, Heat Treated (HT), Ln Concentration", "setting": "[2]; human hepatocytes, 15 min", "result": "4.4085 and 4.9735 and 5.3748"}, {"measurement": "Negative Control Data, Heat Treated (HT), Ln Concentration", "setting": "[2]; human hepatocytes, 240 min", "result": "4.6160 and 4.4891 and 4.5540"}, {"measurement": "Ln Concentration", "setting": "[2]; human hepatocytes, time 0 min", "result": "3.7764 and 3.7975 and 3.7223"}, {"measurement": "Ln Concentration", "setting": "[2]; human hepatocytes, time 15 min", "result": "3.8137 and 3.7544 and 3.6623"}, {"measurement": "Ln Concentration", "setting": "[2]; human hepatocytes, time 30 min", "result": "3.5799 and 3.7106 and 3.6378"}, {"measurement": "Ln Concentration", "setting": "[2]; human hepatocytes, time 60 min", "result": "3.3014 and 3.5121 and 3.4541"}, {"measurement": "Linear Regression Best-Fit Slope (ln concentration vs time)", "setting": "[2]; human hepatocytes, time in min", "result": -0.006025}, {"measurement": "half-life at 1000 nM", "setting": "[3]", "result": 1.44, "unit": "h"}, {"measurement": "hepatocyte CLint at 1000 nM", "setting": "[3]", "result": 16.1, "unit": "µL/min/1e6 cells"}, {"measurement": "Negative Control Data, Heat Treated (HT), 15 min", "setting": "[4]; heat treated rat hepatocytes, 15 min, Ln concentration, Rep 1-3", "result": "3.7605 and 3.8293 and 3.8230"}, {"measurement": "Negative Control Data, Heat Treated (HT), 240 min", "setting": "[4]; heat treated rat hepatocytes, 240 min, Ln concentration, Rep 1-3", "result": "3.8801 and 3.8626 and 3.3989"}, {"measurement": "Negative Control Data, No cells (NC), 15 min", "setting": "[4]; no cells, 15 min, Ln concentration, Rep 1-3", "result": "3.7121 and 3.7753 and 3.7677"}, {"measurement": "Negative Control Data, No cells (NC), 240 min", "setting": "[4]; no cells, 240 min, Ln concentration, Rep 1-3", "result": "3.8252 and 3.8743 and 4.0157"}, {"measurement": "Ln Concentration, 0 min", "setting": "[4]; suspended rat hepatocytes, time 0 min, Rep 1-3", "result": "3.7431 and 3.7883 and 3.8093"}, {"measurement": "Ln Concentration, 15 min", "setting": "[4]; suspended rat hepatocytes, time 15 min, Rep 1-3", "result": "3.7497 and 3.8776 and 3.8997"}, {"measurement": "Ln Concentration, 30 min", "setting": "[4]; suspended rat hepatocytes, time 30 min, Rep 1-3", "result": "3.5148 and 3.4871 and 3.5444"}, {"measurement": "Ln Concentration, 60 min", "setting": "[4]; suspended rat hepatocytes, time 60 min, Rep 1-3", "result": "3.0012 and 3.3979 and 3.4757"}, {"measurement": "Ln Concentration, 120 min", "setting": "[4]; suspended rat hepatocytes, time 120 min, Rep 1-3", "result": "2.7575 and 2.7517 and 2.9423"}, {"measurement": "Ln Concentration, 240 min", "setting": "[4]; suspended rat hepatocytes, time 240 min, Rep 1-3", "result": "2.0042 and 1.7029 and 2.0503"}, {"measurement": "Linear Regression Best-Fit Slope (Ln concentration vs time)", "setting": "[4]; suspended rat hepatocytes, time in min", "result": -0.008025}]}
